Inconclusive results and toxic doses are left out. Cut-off read from the data, not from the text of the source: active = T/C of 150% or more; inactive = T/C below 125%.
Tested on: L1210 leukemia ip in BDF1 mice, survival T/C
Experiment: NCI In Vivo Anticancer Drug Screen. Data for tumor model L1210 Leukemia (intraperitoneal) in B6D2F1 (BDF1) mice
Conditions: endpoint: mean survival time, higher = longer survival
In short: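 Tumor cells were implanted, animals were treated, and survival was followed. The result divides the treated measurement by the vehicle-control measurement.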

[1] = dose: 100.0 mg/kg/injection, schedule: Q01DX009 (ip), vehicle: saline with Tween-80
[2] = dose: 100.0 mg/kg/injection, schedule: Q04DX003 (ip), vehicle: saline with Tween-80
[3] = dose: 200.0 mg/kg/injection, schedule: Q04DX003 (ip), vehicle: saline with Tween-80
[4] = dose: 400.0 mg/kg/injection, schedule: Q04DX003 (ip), vehicle: saline with Tween-80
[5] = dose: 100.0 mg/kg/injection, schedule: Q01DX009 (ip), vehicle: Klucel (hydroxypropylcellulose) (HPC)
[6] = dose: 200.0 mg/kg/injection, schedule: Q01DX009 (ip), vehicle: Klucel (hydroxypropylcellulose) (HPC)
[7] = dose: 25.0 mg/kg/injection, schedule: Q04DX003 (ip), vehicle: saline with Tween-80
[8] = dose: 50.0 mg/kg/injection, schedule: Q04DX003 (ip), vehicle: saline with Tween-80
[9] = dose: 100.0 mg/kg/injection, schedule: Q01DX001 (ip), vehicle: saline
[10] = dose: 50.0 mg/kg/injection, schedule: Q01DX001 (ip), vehicle: saline
[11] = dose: 100.0 mg/kg/injection, schedule: Q04DX003 (ip), vehicle: saline
[12] = dose: 200.0 mg/kg/injection, schedule: Q04DX003 (ip), vehicle: saline
[13] = dose: 400.0 mg/kg/injection, schedule: Q04DX003 (ip), vehicle: saline
[14] = dose: 100.0 mg/kg/injection, schedule: Q01DX009 (ip), vehicle: saline
[15] = dose: 200.0 mg/kg/injection, schedule: Q01DX009 (ip), vehicle: saline
[16] = dose: 50.0 mg/kg/injection, schedule: Q01DX009 (ip), vehicle: saline

Measured: T/C

COc1ccc(OC)c(/C=N/NC(=O)C[N+](C)(C)C)c1
inactive: dose: 50.0 mg/kg/injection, schedule: Q01DX009 (ip), vehicle: saline with Tween-80 88 % of control | [1] 86 % of control

CCCCCCCCCCCCCCCCSc1ccc(S(=O)(=O)N(C)C)cc1C(=O)O
inactive: [2] 98 % of control | [3] 91 % of control | [4] 89 % of control

CC(C)(O)c1cccc2c(C(C)(C)O)cccc12
inactive: dose: 50.0 mg/kg/injection, schedule: Q01DX001 (ip), vehicle: carboxymethylcellulose (CMC) 102 % of control | dose: 100.0 mg/kg/injection, schedule: Q01DX001 (ip), vehicle: carboxymethylcellulose (CMC) 102 % of control | dose: 200.0 mg/kg/injection, schedule: Q01DX001 (ip), vehicle: carboxymethylcellulose (CMC) 94 % of control | dose: 400.0 mg/kg/injection, schedule: Q01DX001 (ip), vehicle: carboxymethylcellulose (CMC) 105 % of control

O=P(C1CCCCC1)(C1CCCCC1)C1CCCCC1
inactive: [5] 89 % of control | [6] 97 % of control

C1=C[N]2c3c4c(ccc3=C1)=CC=C[N]4[Ga]2[c]1ccccc1
inactive: [7] 88 % of control | [8] 97 % of control | [2] 101 % of control

NC(=S)NN=C1CCCCC1
inactive: dose: 5.0 mg/kg/injection, schedule: Q01DX001 (ip), vehicle: carboxymethylcellulose (CMC) 96 % of control | dose: 10.0 mg/kg/injection, schedule: Q01DX001 (ip), vehicle: carboxymethylcellulose (CMC) 96 % of control | dose: 20.0 mg/kg/injection, schedule: Q01DX001 (ip), vehicle: carboxymethylcellulose (CMC) 107 % of control

Clc1cc(CBr)c(CBr)cc1Cl
inactive: dose: 12.5 mg/kg/injection, schedule: Q04DX003 (ip), vehicle: saline with Tween-80 94 % of control | [7] 97 % of control | [8] 91 % of control

O=C1C=CC(=O)N1c1ccc(O)cc1
inactive: dose: 1.25 mg/kg/injection, schedule: Q01DX009 (ip), vehicle: Klucel (hydroxypropylcellulose) (HPC) 105 % of control | dose: 2.5 mg/kg/injection, schedule: Q01DX009 (ip), vehicle: Klucel (hydroxypropylcellulose) (HPC) 107 % of control | dose: 2.5 mg/kg/injection, schedule: Q04DX003 (ip), vehicle: Klucel (hydroxypropylcellulose) (HPC) 96 % of control | dose: 5.0 mg/kg/injection, schedule: Q01DX009 (ip), vehicle: Klucel (hydroxypropylcellulose) (HPC) 102 % of control | dose: 5.0 mg/kg/injection, schedule: Q04DX003 (ip), vehicle: Klucel (hydroxypropylcellulose) (HPC) 95 % of control

NC(=O)c1cc(O)c(O)c(O)c1
inactive: [9] 102 % of control | dose: 200.0 mg/kg/injection, schedule: Q01DX001 (ip), vehicle: saline 102 % of control | dose: 400.0 mg/kg/injection, schedule: Q01DX001 (ip), vehicle: saline 102 % of control

CC(C)=CCNc1ncnc2nc[nH]c12
inactive: dose: 5.0 mg/kg/injection, schedule: Q01DX001 (ip), vehicle: saline 107 % of control | dose: 10.0 mg/kg/injection, schedule: Q01DX001 (ip), vehicle: saline 95 % of control | dose: 10.0 mg/kg/injection, schedule: Q01DX009 (ip), vehicle: saline with Tween-80 104 % of control | dose: 20.0 mg/kg/injection, schedule: Q01DX001 (ip), vehicle: saline 101 % of control | dose: 20.0 mg/kg/injection, schedule: Q01DX009 (ip), vehicle: saline with Tween-80 103 % of control | dose: 20.0 mg/kg/injection, schedule: Q04DX003 (ip), vehicle: saline with Tween-80 100 % of control | dose: 40.0 mg/kg/injection, schedule: Q01DX001 (ip), vehicle: saline 101 % of control | dose: 40.0 mg/kg/injection, schedule: Q01DX009 (ip), vehicle: saline with Tween-80 98 % of control

CCN(CC)CCCN(C)C(=O)C(O)(c1ccccc1)c1ccccc1
inactive: dose: 25.0 mg/kg/injection, schedule: Q01DX001 (ip), vehicle: saline 102 % of control | [10] 97 % of control | [9] 102 % of control

NC(N)=N/N=C/c1nccc2ccccc12
inactive: [10] 102 % of control | [9] 102 % of control

CCCCOP(=O)(NNC=O)OCCCC
inactive: [11] 96 % of control | [12] 98 % of control | [13] 95 % of control

CC[N+](=Cc1ccccc1)C1CCCCC1
inactive: [14] 88 % of control | [11] 100 % of control | [15] 93 % of control | [12] 97 % of control | [13] 108 % of control

CCOC(=O)/C(=C\c1ccc(N(C)C)cc1)c1nc2ccccc2[nH]1
inactive: dose: 100.0 mg/kg/injection, schedule: Q04DX002 (ip), vehicle: saline with Tween-80 92 % of control | dose: 200.0 mg/kg/injection, schedule: Q04DX002 (ip), vehicle: saline with Tween-80 92 % of control | dose: 400.0 mg/kg/injection, schedule: Q04DX002 (ip), vehicle: saline with Tween-80 104 % of control

CC(C)C(NC(=O)C1CSC(C)(C)N1C=O)C(N)=O (stereo not drawn)
inactive: [2] 101 % of control | [3] 98 % of control | [4] 101 % of control

COC(OC)c1[nH]c(=S)[nH]c(=O)c1Cc1ccc(C)c(C)c1
inactive: [1] 104 % of control | [2] 94 % of control | dose: 200.0 mg/kg/injection, schedule: Q01DX009 (ip), vehicle: saline with Tween-80 96 % of control | [3] 96 % of control | dose: 400.0 mg/kg/injection, schedule: Q01DX009 (ip), vehicle: saline with Tween-80 87 % of control | [4] 100 % of control

c1ccc(CN(CCNc2ccccc2)c2ccccc2)cc1
inactive: dose: 50.0 mg/kg/injection, schedule: Q01DX009 (ip), vehicle: water 97 % of control | dose: 100.0 mg/kg/injection, schedule: Q01DX009 (ip), vehicle: water 94 % of control

CNC(=O)NCC1OC(OC2(CO)OC(CNC(=O)NC)C(O)C2O)C(O)C(O)C1O (stereo not drawn)
inactive: [16] 91 % of control | [14] 98 % of control | [15] 98 % of control

O=C(Nc1cccc(F)c1)N(Cc1ccccc1)Cc1ccccc1
inactive: [5] 92 % of control | [6] 102 % of control | dose: 400.0 mg/kg/injection, schedule: Q01DX009 (ip), vehicle: Klucel (hydroxypropylcellulose) (HPC) 97 % of control

CCCCCCCC/C=C\CCCCCCCCNC(C)=O
inactive: [2] 101 % of control | [3] 103 % of control | [4] 98 % of control

CCOC(=O)C[P+](c1ccc(C)cc1)(c1ccc(C)cc1)c1ccc(C)cc1
inactive: dose: 15.0 mg/kg/injection, schedule: Q01DX001 (ip), vehicle: carboxymethylcellulose (CMC) 86 % of control

NC(=O)NNC(N)=O
inactive: [16] 91 % of control | [14] 98 % of control | [11] 102 % of control | [12] 101 % of control

N#CCCN1CCCSC1=S
inactive: dose: 75.0 mg/kg/injection, schedule: Q01DX001 (ip), vehicle: other 109 % of control | dose: 150.0 mg/kg/injection, schedule: Q01DX001 (ip), vehicle: other 115 % of control | dose: 300.0 mg/kg/injection, schedule: Q01DX001 (ip), vehicle: other 113 % of control

NOCc1cnccn1
inactive: dose: 75.0 mg/kg/injection, schedule: Q01DX001 (ip), vehicle: saline 92 % of control | dose: 150.0 mg/kg/injection, schedule: Q01DX001 (ip), vehicle: saline 96 % of control | dose: 300.0 mg/kg/injection, schedule: Q01DX001 (ip), vehicle: saline 88 % of control

Source: PubChem BioAssay AID248 (DTP/NCI, 2004)
